From patent US10724055B2, “Methods for sustaining the viability of microorganisms during a cessation of syngas flow and processes for storage and reactivation of microorganisms” (Synata Bio, Inc., priority 2015, dated 2020)

Columns and labels:
Assay in all cases: Sustaining microorganisms with formate moiety during cessation of syngas feed, recovery on syngas resumption
Type in all cases: cell-based
Clostridium radsdalei = conditions: Example 3; formate feed 5 mole % of electrons; outage 12 hrs; no media or sulfur feed
Experimental: (§1) A stirred, 10 liter, continuous fermenter is used under anaerobic bioconversion conditions with a feed gas comprising about 63.3 volume percent hydrogen; 20.5 volume percent carbon monoxide; 6.8 volume percent carbon dioxide; 8.2 volume percent methane and 1.2 volume percent nitrogen. During steady state operation, the gas feed is supplied at about 280 to 290 […] (measured at atmospheric pressure and 25° C.) and a media feed is provided at about 200 milliliters per hour. The media feed is an aqueous solution containing:
(§2) An aqueous solution of about 60 millimoles of sodium metabisulfite is separately added at a rate of 0.6 milliliters per hour. The fermenter is maintained at about 37° C. at a pH of about 5.0. The stirring rate is approximately 600 revolutions per minute.
(§3) In each example, the fermentation, using the microorganism specified in Table 1, is operated to achieve stable, steady-state conditions. The flow of syngas is then stopped. At the time of stoppage of syngas feed, the fermenter is operated in batch mode (no aqueous stream draw from the fermenter), nitrogen gas at about 15 milliliters per minute (atmospheric pressure and 25° C.) is fed to sweep the head space of the fermenter, and the stirring rate is reduced to about 100 rpm. After a predetermined period, the addition of formate moiety is stopped, the nitrogen sweep gas is stopped and the syngas is resumed at a rate that matches the uptake capacity of the microbial population. The stirring is increased to about 600 rpm, and the flow rates of the media feed and metabisulfite feed are resumed to the levels existing prior to the cessation of the syngas feed.

[1] = system: Clostridium autoethanogenum; conditions: Example 2; formate feed 3.5 mole % of electrons; outage 6 hrs; media feed 10%; Na2S 20 mg/hr; argon sweep gas
[2] = system: Clostridium autoethanogenum
Experimental: as §1, §2
as §3, with “At the time of stoppage of syngas feed, the fermenter is operated in batch mode (no aqueous stream draw from the fermenter), nitrogen gas at about 15 milliliters per minute (atmospheric pressure and 25° C.) is fed to sweep the head space of the fermenter, and the stirring rate is reduced to about 100 rpm.” left out

Clostridium coskatii = conditions: no media or sulfur feed
Experimental: as §1, §2, §3

[3] = Example 1, formate feed 3.5 mole % of electrons prior to outage, syngas outage 6 hrs, media feed 10%, Na2S 20 mg/hr, nitrogen sweep
[4] = Example 8, formate feed 3.5 mole % of electrons, outage 6 hrs, no media or sulfur feed
[5] = Example 4, formate feed 3.5 mole % of electrons, outage 6 hrs
[6] = Example 5, formate feed 3.5 mole % of electrons, outage 24 hrs
[7] = Example 6, formate feed 15 mole % of electrons, outage 24 hrs
[8] = Example 9, formate feed 10 mole % of electrons, outage 6 hrs, no media or sulfur feed
[9] = Example 10, formate feed 10 mole % of electrons, outage 24 hrs, no media or sulfur feed

O=C[O-].[Na+] [Sodium salt]
Yes: CO uptake recovery (Clostridium radsdalei) | H2 uptake recovery (Clostridium radsdalei) | CO uptake recovery [1] | CO uptake recovery [2, 3] | H2 uptake recovery [2, 3] | H2 uptake recovery ([2]; Example 2, formate feed 3.5 mole % of electrons, outage 6 hrs, media feed 10%, Na2S 20 mg/hr, argon sweep gas) | CO uptake recovery [2, 4] | H2 uptake recovery [2, 4]

N.O=CO [NH4^+ salt]
Yes: CO uptake recovery (Clostridium coskatii; [5]) | H2 uptake recovery (Clostridium coskatii; [5]) | CO uptake recovery (Clostridium coskatii; [6]) | H2 uptake recovery (Clostridium coskatii; [6]) | CO uptake recovery (Clostridium coskatii; [7]) | H2 uptake recovery (Clostridium coskatii; [7])

O=CO [Formic acid]
Yes: CO uptake recovery [2, 8] | H2 uptake recovery [2, 8] | CO uptake recovery [2, 9] | H2 uptake recovery [2, 9]
